Columns and labels:
[1] = target: GST-tagged human ROCK1 catalytic domain 1-477 (Homo sapiens (Human), UniProt Q13464); assay: Inhibition of Rho-associated protein kinase isoform 1 (LANCE Ultra ULight-CREBtide FRET kinase assay); format: biochemical; conditions: 30 μM was the highest concentration analyzed
Summary of the method: (§1)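 Baculovirus-expressed kinase phosphorylated ULight-CREBtide for 90 min at room temperature before the reaction was stopped with 10 mM EDTA. Phospho-substrate was detected by TR-FRET with 1 nM Europium-anti-phospho-CREB (Ser133) antibody after 60 min at room temperature.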

[2] = target: GST-tagged human ROCK2 catalytic domain 1-553 (Homo sapiens (Human), UniProt O75116); assay: Inhibition of Rho-associated protein kinase isoform 2 (LANCE Ultra ULight-CREBtide FRET kinase assay); format: biochemical; conditions: for IC50: 30 μM was the highest concentration analyzed; for Selectivity for ROCK2 over ROCK1 (IC50 ROCK1 / IC50 ROCK2): selectivity ROCK2 vs ROCK1
Summary of the method: as §1

Sequence of GST-tagged human ROCK1 catalytic domain 1-477 (Q13464 1-477): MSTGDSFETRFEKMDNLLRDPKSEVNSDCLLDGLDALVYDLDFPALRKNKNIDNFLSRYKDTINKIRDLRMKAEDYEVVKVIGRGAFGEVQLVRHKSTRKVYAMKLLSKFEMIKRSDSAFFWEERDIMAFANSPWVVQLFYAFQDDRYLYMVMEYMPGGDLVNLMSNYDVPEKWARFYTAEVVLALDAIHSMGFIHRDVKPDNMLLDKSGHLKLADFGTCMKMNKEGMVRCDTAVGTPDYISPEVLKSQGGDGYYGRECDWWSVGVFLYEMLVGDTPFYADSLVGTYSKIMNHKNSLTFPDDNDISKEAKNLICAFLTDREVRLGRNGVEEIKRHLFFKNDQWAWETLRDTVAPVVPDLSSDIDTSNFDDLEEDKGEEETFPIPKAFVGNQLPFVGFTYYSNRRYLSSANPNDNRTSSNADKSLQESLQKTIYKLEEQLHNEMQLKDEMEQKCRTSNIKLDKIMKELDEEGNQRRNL
Sequence of GST-tagged human ROCK2 catalytic domain 1-553 (O75116 1-553): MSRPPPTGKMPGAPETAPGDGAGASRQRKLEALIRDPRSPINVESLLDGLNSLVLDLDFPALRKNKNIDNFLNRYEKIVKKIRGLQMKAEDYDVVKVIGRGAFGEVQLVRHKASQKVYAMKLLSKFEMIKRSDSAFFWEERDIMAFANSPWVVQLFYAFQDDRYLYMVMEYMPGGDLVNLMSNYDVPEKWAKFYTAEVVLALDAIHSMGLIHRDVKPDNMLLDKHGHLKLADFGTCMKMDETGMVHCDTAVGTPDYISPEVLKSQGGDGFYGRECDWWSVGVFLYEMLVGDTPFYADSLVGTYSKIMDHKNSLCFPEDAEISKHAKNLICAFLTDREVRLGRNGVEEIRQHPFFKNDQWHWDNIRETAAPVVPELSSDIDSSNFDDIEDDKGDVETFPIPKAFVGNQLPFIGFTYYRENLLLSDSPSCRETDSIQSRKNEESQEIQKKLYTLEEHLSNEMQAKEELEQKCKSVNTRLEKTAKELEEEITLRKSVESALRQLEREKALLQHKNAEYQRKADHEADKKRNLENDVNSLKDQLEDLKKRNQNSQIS

SMILES | IC50 [1] [µM] | IC50 [2] [µM] | Selectivity for ROCK2 over ROCK1 (IC50 ROCK1 / IC50 ROCK2) [2]
O=C(Nc1cc(-c2nnc(Nc3ccc4[nH]ncc4c3Cl)s2)ccc1C(F)(F)F)c1cnn(CCO)c1 [Example 48M] | < 1 | < 1 | >5
Cn1cc(C(=O)Nc2cc(-c3nnc(Nc4ccc5[nH]ncc5c4Cl)s3)ccc2C(F)(F)F)cn1 [Example 48N] | > 30 | < 1 | >100
CC(=O)Nc1cc(-c2nnc(Nc3ccc4[nH]ncc4c3Cl)s2)ccc1C(F)(F)F [Example 48O] | > 30 | < 1 | >100
CC(=O)Nc1cc(-c2nnc(Nc3ccc4[nH]ncc4c3Cl)s2)ccc1-c1ncco1 [Example 48P] | > 30 | < 1 | >100
CC(=O)Nc1cc(C(=O)N2CCC(C(=O)O)CC2)cc(-c2nnc(Nc3ccc4[nH]ncc4c3Cl)s2)c1 [Example 48Q] | 1 to 15 | < 1 | >5
Cn1cc(C(=O)Nc2cc(CC(=O)O)cc(-c3nnc(Nc4ccc5[nH]ncc5c4Cl)s3)c2)cn1 [Example 48R] | < 1 | < 1 | >5
CC(=O)Nc1cc(C(=O)NCC(O)CO)cc(-c2nnc(Nc3ccc4[nH]ncc4c3Cl)s2)c1 (centres unmarked) [Example 48W] | < 1 | < 1 | >5
Cn1cc(C(=O)Nc2cc(-c3nnc(Nc4ccc5[nH]ncc5c4Cl)s3)ccc2Br)cn1 [Example 48Y] | > 30 | < 1 | >100
c1cc(-c2nnc(Nc3ccc4[nH]ncc4c3)s2)c2nccn2c1 [Example 49, 5-Imidazo[1,2-a]pyridin-8-yl-N-(1H-indazol-5-yl)-1,3,4-thiadiazol-2-amine 2,2,2-trifluoroacetic Acid Solvate] | < 1 | < 1 | >5
CCc1cn2cccc(-c3nnc(Nc4ccc5[nH]nc(C)c5c4)s3)c2n1 [Example 50A] | 1 to 15 | < 1 | >5
FC(F)(F)c1nc2c(-c3nnc(Nc4ccc5[nH]ncc5c4Cl)s3)cc(Br)cn2n1 [Example 50B] | 1 to 15 | < 1 | >100
Clc1c(Nc2nnc(-c3cccn4cc(C5CCCO5)nc34)s2)ccc2[nH]ncc12 (centres unmarked) [Example 50C] | < 1 | < 1 | >5
O=C(O)c1ccc(-c2cn3cccc(-c4nnc(Nc5ccc6[nH]ncc6c5Cl)s4)c3n2)cc1 [Example 50E] | > 30 | < 1 | >100
CC(C)(O)c1ccc(-c2cn3cccc(-c4nnc(Nc5ccc6[nH]ncc6c5Cl)s4)c3n2)cc1 [Example 50F] | < 1 | < 1 | >5
Clc1c(Nc2nnc(-c3cccn4cc(C5CCCN5)nc34)s2)ccc2[nH]ncc12 (centres unmarked) [Example 50G] | < 1 | < 1 | <5
Clc1c(Nc2nnc(-c3cccn4cc(C5CCNCC5)nc34)s2)ccc2[nH]ncc12 [Example 50H] | 1 to 15 | < 1 | >5
CC(=O)c1ccc(-c2cn3cccc(-c4nnc(Nc5ccc6[nH]ncc6c5Cl)s4)c3n2)cc1 [Example 51, 1-(4-(8-(5-((4-Chloro-1H-indazol-5-yl)amino)-1,3,4-thiadiazol-2-yl)imidazo[1,2-a]pyridin-2-yl)phenyl)ethan-1-one] | > 30 | < 1 | >100
CC(C)c1cn2cccc(-c3nnc(Nc4ccc5[nH]ncc5c4Cl)s3)c2n1 [Example 52B] | < 1 | < 1 | <5
FC(F)(F)c1cn2cccc(-c3nnc(Nc4ccc5[nH]ncc5c4Cl)s3)c2n1 [Example 52C] | > 30 | < 1 | >100
CCc1cn2cccc(-c3nnc(Nc4ccc5[nH]ncc5c4Cl)s3)c2n1 [Example 52D] | < 1 | < 1 | >5
Clc1c(Nc2nnc(-c3cccn4cc(-c5ccc(Br)cc5)nc34)s2)ccc2[nH]ncc12 [Example 52E] | > 30 | < 1 | >100
Brc1cc(-c2nnc(Nc3ccc4[nH]ncc4c3)s2)c2nccn2c1 [Example 52F] | > 30 | < 1 | >100
Brc1ccc(-c2cn3cccc(-c4nnc(Nc5ccc6[nH]ncc6c5)s4)c3n2)cc1 [Example 52G] | > 30 | < 1 | >100
CN(c1nnc(-c2cccc(NC(=O)Cc3ccc(C#N)cc3)c2)s1)c1ccc2[nH]ncc2c1Cl [Example 54B] | > 30 | 15 to 30 | <5
Cc1cnn(CC(=O)Nc2cccc(-c3nnc(N(C)c4ccc5[nH]ncc5c4Cl)s3)c2)c1 [Example 54C] | 1 to 15 | 1 to 15 | <5

SMILES | IC50 [1] [µM] | IC50 [2] [µM] | Selectivity for ROCK2 over ROCK1 (IC50 ROCK1 / IC50 ROCK2) [2]
CC(=O)Nc1cccc(-c2nnc(N(C)c3ccc4[nH]ncc4c3)s2)c1 [Example 54D] | 1 to 15 | 1 to 15 | 
COc1cccc(-c2nnc(N(CCO)c3ccc4[nH]ncc4c3)s2)c1 [Example 54E] | 15 to 30 | 15 to 30 | 
Clc1c(Nc2nnc(-c3cccc4[nH]c(-c5cccs5)nc34)s2)ccc2[nH]ncc12 [Example 56B] | > 30 | < 1 | >100
CN1C(=O)Cc2cccc(-c3nnc(Nc4ccc5[nH]ncc5c4Cl)s3)c21 [Example 56C] | 1 to 15 | 1 to 15 | <5
O=C1Cc2c(cccc2-c2nnc(Nc3ccc4[nH]ncc4c3Cl)s2)N1 [Example 56D] | > 30 | < 1 | >100
O=C1Cc2cccc(-c3nnc(Nc4ccc5[nH]ncc5c4Cl)s3)c2N1 [Example 56E] | > 30 | < 1 | >50
Cn1c(C2CCOCC2)nc2c(-c3nnc(Nc4ccc5[nH]ncc5c4)s3)cccc21 [Example 56F] | > 30 | < 1 | >100
Cn1c(C2CC2)nc2c(-c3nnc(Nc4ccc5[nH]ncc5c4)s3)cccc21 [Example 56G] | > 30 | < 1 | >100
Cn1cccc(-c2nnc(Nc3ccc4[nH]ncc4c3Cl)s2)c1=O.O=C(O)C(F)(F)F [Example 56H] | > 30 | < 1 | >100
CCc1c(Nc2nnc(-c3cccc(NC(C)=O)c3)s2)ccc2[nH]ncc12 [Example 75C] | < 1 | < 1 | >5
CN1CCN(C(=O)Nc2ccc(-c3nnc(Nc4ccc5[nH]ncc5c4Cl)s3)cc2)CC1 [Example 75D] | < 1 | < 1 | >5
Clc1c(Nc2nnc(-c3cccc4c3OCCO4)s2)ccc2[nH]ncc12 [Example 75E] | > 30 | > 30 | 
CC(C)(O)CNC(=O)c1cccc(-c2nnc(Nc3ccc4[nH]ncc4c3Cl)s2)c1 [Example 75F] | 1 to 15 | < 1 | >5
Cc1cccc(CNC(=O)c2cccc(-c3nnc(Nc4ccc5[nH]ncc5c4Cl)s3)c2)n1 [Example 75G] | < 1 | < 1 | <5
c1cc(-c2nnc(Nc3ccc4[nH]ncc4c3)s2)cc(N2CCNCC2)c1 [Example 75H] | > 30 | 1 to 15 | >5
Cn1cc(C(=O)Nc2cc(-c3nnc(Nc4ccc5[nH]ncc5c4)s3)ccn2)cn1 [Example 75I] | < 1 | < 1 | <5
Cn1cc(C(=O)Nc2cccc(-c3nnc(Nc4ccc5[nH]nc(Cl)c5c4)s3)c2)cn1 [Example 75J] | > 30 | > 30 | 
CNCc1ccc(C(=O)Nc2cccc(-c3nnc(Nc4ccc5[nH]ncc5c4)s3)c2)cn1 [Example 75K] | < 1 | < 1 | >5
CC(C)NC(=O)COc1cncc(-c2nnc(Nc3ccc4[nH]ncc4c3)s2)c1 [Example 75L] | > 30 |  | >75
O=C(Nc1cccc(-c2nnc(Nc3ccc4[nH]ncc4c3F)s2)c1)c1c[nH]cn1 [Example 75N] | > 30 | > 30 | 
O=[N+]([O-])c1cccc(-c2nnc(Nc3ccc4[nH]ncc4c3)s2)c1 [Example 75O] | 1 to 15 | 1 to 15 | 
CN(C)Cc1cc(-c2ncco2)cc(-c2nnc(Nc3ccc4[nH]ncc4c3Cl)s2)c1 [Example 75P] | 1 to 15 | < 1 | >5
CC1(C)CN=C(c2cccc(-c3nnc(Nc4ccc5[nH]ncc5c4Cl)s3)c2)O1 [Example 75Q] | 1 to 15 | < 1 | >5
Cc1cccc(-c2cccc(-c3nnc(Nc4ccc5[nH]ncc5c4Cl)s3)c2)n1 [Example 75R] | > 30 | < 1 | >100

Reference: patent publication US10112935B2, “Indazolyl thiadiazolamines and related compounds for inhibition of Rho-associated protein kinase and the treatment of disease” (Lycera Corporation, priority 2015, dated 2018)
